Results: publication PMC6271077, “Synthesis, Anticancer and Antibacterial Activity of Salinomycin N-Benzyl Amides” (Molecules, 2014)
≈ marks a conversion by molar mass, not a printed value.

test system: M. tuberculosis isoniazid-resistant strain (spec. 210); test: Tuberculostatic activity, test-tube dilution; format: cell-based; settings: Mycobacterium tuberculosis, read-out: MIC M. tuberculosis Isoniazid-Resistant Strain

Question: With CC[C@H](C(=O)NCc1cccc(Br)c1)C1CC[C@H](C)C([C@@H](C)[C@H](O)[C@H](C)C(=O)[C@H](CC)C2O[C@]3(C=C[C@@H](O)C4(CC[C@@](C)(C5CC[C@](O)(CC)[C@H](C)O5)O4)O3)[C@H](C)C[C@@H]2C)O1 (some centres unmarked) [Br-m] as the molecule, how does the MIC read?
Answer: Its MIC is over 100 µg/mL.

Question: How did the MIC turn out when CC[C@H](C(=O)NCc1ccccc1Br)C1CC[C@H](C)C([C@@H](C)[C@H](O)[C@H](C)C(=O)[C@H](CC)C2O[C@]3(C=C[C@@H](O)C4(CC[C@@](C)(C5CC[C@](O)(CC)[C@H](C)O5)O4)O3)[C@H](C)C[C@@H]2C)O1 (some centres unmarked) [Br-o] was run?
Answer: The MIC was over 100 µg/mL.

Question: With CC[C@H](C(=O)NCc1ccc(Br)cc1)C1CC[C@H](C)C([C@@H](C)[C@H](O)[C@H](C)C(=O)[C@H](CC)C2O[C@]3(C=C[C@@H](O)C4(CC[C@@](C)(C5CC[C@](O)(CC)[C@H](C)O5)O4)O3)[C@H](C)C[C@@H]2C)O1 (some centres unmarked) [Br-p] as the molecule, how does the MIC read?
Answer: Its MIC is 100 µg/mL (≈ 109 µM).

Question: How did the MIC turn out when CC[C@H](C(=O)NCc1cccc(Cl)c1)C1CC[C@H](C)C([C@@H](C)[C@H](O)[C@H](C)C(=O)[C@H](CC)C2O[C@]3(C=C[C@@H](O)C4(CC[C@@](C)(C5CC[C@](O)(CC)[C@H](C)O5)O4)O3)[C@H](C)C[C@@H]2C)O1 (some centres unmarked) [Cl-m] was run?
Answer: Its MIC is over 100 µg/mL.

Question: With CC[C@H](C(=O)NCc1ccccc1Cl)C1CC[C@H](C)C([C@@H](C)[C@H](O)[C@H](C)C(=O)[C@H](CC)C2O[C@]3(C=C[C@@H](O)C4(CC[C@@](C)(C5CC[C@](O)(CC)[C@H](C)O5)O4)O3)[C@H](C)C[C@@H]2C)O1 (some centres unmarked) [Cl-o] as the molecule, how does the MIC read?
Answer: The MIC was over 100 µg/mL.

Question: With CC[C@H](C(=O)NCc1ccc(Cl)cc1)C1CC[C@H](C)C([C@@H](C)[C@H](O)[C@H](C)C(=O)[C@H](CC)C2O[C@]3(C=C[C@@H](O)C4(CC[C@@](C)(C5CC[C@](O)(CC)[C@H](C)O5)O4)O3)[C@H](C)C[C@@H]2C)O1 (some centres unmarked) [Cl-p, p-chlorobenzyl amide of salinomycin] as the molecule, how does the MIC read?
Answer: Its MIC is over 100 µg/mL.

Question: With CCC(C(=O)NCc1cccc(F)c1)C1CCC(C)C(C(C)C(O)C(C)C(=O)C(CC)C2OC3(C=CC(O)C4(CCC(C)(C5CCC(O)(CC)C(C)O5)O4)O3)C(C)CC2C)O1 (centres unmarked) [F-m] as the molecule, how does the MIC read?
Answer: Its MIC is over 100 µg/mL.

Question: With CCC(C(=O)NCc1ccccc1F)C1CCC(C)C(C(C)C(O)C(C)C(=O)C(CC)C2OC3(C=CC(O)C4(CCC(C)(C5CCC(O)(CC)C(C)O5)O4)O3)C(C)CC2C)O1 (centres unmarked) [F-o] as the molecule, how does the MIC read?
Answer: Its MIC is 100 µg/mL (≈ 117 µM).

Question: CC[C@H](C(=O)NCc1ccc(F)cc1)C1CC[C@H](C)C([C@@H](C)[C@H](O)[C@H](C)C(=O)[C@H](CC)C2O[C@]3(C=C[C@@H](O)C4(CC[C@@](C)(C5CC[C@](O)(CC)[C@H](C)O5)O4)O3)[C@H](C)C[C@@H]2C)O1 (some centres unmarked) [F-p] was tested. Which MIC did it give?
Answer: Its MIC is 50 µg/mL (≈ 58.3 µM).

Question: NNC(=O)c1ccncc1 [Isoniazid, isoniazid, reference compound] was tested. Which MIC did it give?
Answer: The MIC was 6.25 µg/mL (≈ 45.6 µM).

Question: Which MIC does the source give for CC[C@H](C(=O)NCc1cccc([N+](=O)[O-])c1)C1CC[C@H](C)C([C@@H](C)[C@H](O)[C@H](C)C(=O)[C@H](CC)C2O[C@]3(C=C[C@@H](O)C4(CC[C@@](C)(C5CC[C@](O)(CC)[C@H](C)O5)O4)O3)[C@H](C)C[C@@H]2C)O1 (some centres unmarked) [NO2-m] here?
Answer: Its MIC is over 100 µg/mL.

Question: CCC(C(=O)NCc1ccccc1[N+](=O)[O-])C1CCC(C)C(C(C)C(O)C(C)C(=O)C(CC)C2OC3(C=CC(O)C4(CCC(C)(C5CCC(O)(CC)C(C)O5)O4)O3)C(C)CC2C)O1 (centres unmarked) [NO2-o] was tested. Which MIC did it give?
Answer: The MIC was 100 µg/mL (≈ 113 µM).

Question: CC[C@H](C(=O)NCc1ccc([N+](=O)[O-])cc1)C1CC[C@H](C)C([C@@H](C)[C@H](O)[C@H](C)C(=O)[C@H](CC)C2O[C@]3(C=C[C@@H](O)C4(CC[C@@](C)(C5CC[C@](O)(CC)[C@H](C)O5)O4)O3)[C@H](C)C[C@@H]2C)O1 (some centres unmarked) [NO2-p] was tested. Which MIC did it give?
Answer: The MIC was 50 µg/mL (≈ 56.5 µM).

Question: CC[C@@H](C(=O)[C@@H](C)[C@@H](O)[C@H](C)[C@@H]1O[C@@H]([C@@H](CC)C(=O)O)CC[C@@H]1C)[C@H]1O[C@]2(C=C[C@@H](O)[C@]3(CC[C@@](C)([C@H]4CC[C@](O)(CC)[C@H](C)O4)O3)O2)[C@H](C)C[C@@H]1C [SAL, Salinomycin] was tested. Which MIC did it give?
Answer: Its MIC is 50 µg/mL (≈ 66.6 µM).
